In patent publication EP0480258A2, “Use of substituted 2-mercapto-nicotinic acid derivatives for combat against endoparasites, novel substituted 2-mercaptonicotinir acid derivatives and processes for their preparation” (BAYER AG, priority 1990, dated 1992):

Tests used:
[1] = system: Haemonchus contortus; assay: In vivo nematode test, Haemonchus contortus / sheep; settings: experimentally infected sheep (Schaf), treated after the prepatent period, pure active compound in gelatin capsules, oral, dose giving complete cessation of egg excretion in faeces, read-out: Dosis effectiva
Source text: Haemonchus contortus / Schaf
Experimentell mit Haemonchus contortus infizierte Schafe wurden nach Ablauf der Präpatenzzeit des Parasiten behandelt. Die Wirkstoffe wurden als reiner Wirkstoff in Gelatinekapseln oral appliziert.
Der Wirkungsgrad wird dadurch bestimmt, daß man die mit dem Kot ausgeschiedenen […] vor und nach der Behandlung quantitativ auszählt.
Ein völliges Sistieren der Eiausscheidung nach der Behandlung bedeutet, daß die Würmer abgetrieben wurden oder so geschädigt sind, daß sie keine Eier mehr produzeiren (Dosis effectiva).
Geprüfte Wirkstoffe und wirksame Dosierungen (Dosis effectiva) sind aus der nachfolgenden Tabelle ersichtlich: […]

[2] = system: Trichostrongylus colubriformis; assay: In vivo nematode test, Trichostrongylus colubriformis / sheep; settings: experimentally infected sheep (Schaf), treated after the prepatent period, pure active compound in gelatin capsules, oral, dose giving complete cessation of egg excretion in faeces, read-out: Dosis effectiva
Source text: Trichostrongylus colubriformis / Schaf
Experimentell mit Trichostrongylus colubriformis infizierte Schafe wurden nach Ablauf der Präpatenzzeit des Parasiten behandelt. Die Wirkstoffe wurden als reiner Wirkstoff in Gelatinekapseln oral appliziert.
Der Wirkungsgrad wird dadurch bestimmt, daß man die mit dem Kot ausgeschiedenen Wurmeier vor und nach der Behandlung quantitativ auszählt.
Ein völliges Sistieren der Eiausscheidung nach der Behandlung bedeutet, daß die Würmer abgetrieben wurden oder so geschädigt sind, daß sie keine Eier mehr produzieren (Dosis effectiva).
Geprüfte Wirkstoffe und wirksame Dosierungen (Dosis effectiva) sind aus der nachfolgenden Tabelle ersichtlich.

SMILES	minimal effective dose [1] [mg/kg]	minimal effective dose [2] [mg/kg]
CCCSc1ncccc1C(=O)Nc1ccc(SC(F)(F)F)cc1 [Beispiel 29]	10	10
CCSc1ncccc1C(=O)Nc1ccccc1 [Beispiel 24]	10	
CSc1ncccc1C(=O)Nc1ccc(Sc2ccc(Cl)cc2)cc1C(F)(F)F [Beispiel 87]		10
CCCSc1ncccc1C(=O)Nc1ccccc1 [Beispiel 2]	10	10
CSc1ncccc1C(=O)Nc1ccc(Cl)cc1 [Beispiel 7]	10	5
CCCSc1ncccc1C(=O)Nc1ccc(Cl)cc1 [Beispiel 9]	10	
C=CCSc1ncccc1C(=O)Nc1ccccc1 [Beispiel 3]		10
CCSc1ncccc1C(=O)Nc1ccc(Cl)cc1 [Beispiel 13]		10
CSc1ncccc1C(=O)Nc1ccccc1 [Beispiel 1]	10	
CCCSc1ncccc1C(=O)Nc1ccccc1Cl [Beispiel 6]	5	
